Results taken from PubChem BioAssay (NCI).
“And” between values parts separate entries of the source, which are not always exact repeats. Equal entries are not always repeated.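 Five compound concentrations were applied to cells in 96-well plates for 48 hours; endpoints were derived by simple linear interpolation of the resulting dose-response curve. Abbreviation: GI50, concentration required for 50% inhibition of growth. TGI is the concentration that stops growth completely.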

Legend:
Assay in all cases: NCI-60 cell line screen, 48 h
SF-295 CNS = system: SF-295 CNS
MDA-MB-435 = system: MDA-MB-435
MDA-MB-231 breast = system: MDA-MB-231 breast
SN12C renal = system: SN12C renal
NCI-H226 lung = system: NCI-H226 lung
SNB-75 CNS = system: SNB-75 CNS
HCC-2998 colon = system: HCC-2998 colon
HCT-15 colon = system: HCT-15 colon
OVCAR-5 ovarian = system: OVCAR-5 ovarian
K-562 leukemia = system: K-562 leukemia
ACHN renal = system: ACHN renal
T-47D breast = system: T-47D breast

SMILES | TGI (SF-295 CNS) [µM] | TGI (MDA-MB-435) [µM] | TGI (MDA-MB-231 breast) [µM] | TGI (SN12C renal) [µM] | TGI (NCI-H226 lung) [µM] | TGI (SNB-75 CNS) [µM] | TGI (HCC-2998 colon) [µM] | TGI (HCT-15 colon) [µM] | TGI (OVCAR-5 ovarian) [µM] | TGI (K-562 leukemia) [µM] | TGI (ACHN renal) [µM] | TGI (T-47D breast) [µM] | GI50 (K-562 leukemia) [nM] | GI50 (SF-295 CNS) [nM] | GI50 (SN12C renal) [nM] | GI50 (NCI-H226 lung) [nM] | GI50 (SNB-75 CNS) [nM] | GI50 (HCC-2998 colon) [nM] | GI50 (HCT-15 colon)
CC[C@@]1(O)C(=O)OCc2c1cc1n(c2=O)Cc2c-1nc1ccccc1c2/C=N\NC(=O)C(C)N (stereo partly drawn) | 8.14 | > 100 | > 100 | 11.1 | 2.43 | 4.33 | > 21.1 | > 100 | > 100 |  |  |  |  |  |  |  |  |  | 
O=C(c1ccccc1)c1c(CNCc2ccccc2)n(C(=O)c2ccccc2)c2ccccc12 | 41.7 |  |  |  | > 100 | 27.5 | > 100 | > 100 | > 100 | > 100 | > 100 |  |  |  |  |  |  |  | 
O=c1[nH]c(=O)n(C2CC(O)C(CO)O2)cc1C#Cc1cc(F)cc(F)c1 (stereo not drawn) | > 100 |  |  | > 100 | > 100 | > 100 | > 100 | > 100 | > 100 | > 100 | > 100 |  |  |  |  |  |  |  | 
COc1cc(C=O)c(-c2cc3c(cc2C=O)OCO3)c(OC)c1OC | 219 |  |  | 260 | 280 |  | > 290 | 279 | > 290 | > 290 | > 290 |  |  |  |  |  |  |  | 
CC1CCC23COC(=O)C2C(O)CCC3C1(C)CC(O)c1ccoc1 (stereo not drawn) | > 100 |  |  | > 100 | > 100 | > 100 | > 100 | > 100 | > 100 | > 100 | > 100 |  |  |  |  |  |  |  | 
CCSc1nc2n(c(=S)n1)CCN2C | 41.2 |  |  | 47.8 | 42.8 | 30.8 | 30.3 | 40.6 | 42.7 | 79.5 | 60.6 |  |  |  |  |  |  |  | 
CC(=O)NC(CCCCNC(=O)N(C)N=O)C(=O)NCc1ccccc1 (stereo not drawn) | > 100 |  |  | > 100 | > 100 | > 100 | > 100 | > 100 | > 100 | > 100 | > 100 |  |  |  |  |  |  |  | 
O=C(Nc1c(Cl)cc([N+](=O)[O-])cc1Cl)/C(=N\Nc1cccc(Cl)c1)c1c(O)c2ccccc2oc1=O | > 100 |  |  | > 100 |  |  | > 100 |  | > 100 | > 100 | > 100 |  |  |  |  |  |  |  | 
CCN(CC)c1nc(N(C)C)c2cc(OC)ccc2n1 | > 100 | > 100 | > 100 | 89.3 | 60.1 |  | 46.4 | > 100 | > 100 | > 100 | > 100 |  |  |  |  |  |  |  | 
CCN(CC)CCOc1ccc(C(=C2CCCCC2)c2ccc(OCCN(CC)CC)cc2)cc1 | 3.3 |  |  | 3.09 | 4.26 | 2.94 | 2.62 | 2.91 | 3.37 | 1.02 | 3.18 |  |  |  |  |  |  |  | 
C/C(=N/N)c1ccc2[nH]c3c(C)cc([N+](=O)[O-])c(C)c3c2c1 | 35.5 |  |  | 15.8 | 29.2 | > 100 | 31.6 | 24.7 |  | 40.7 | 21.6 |  |  |  |  |  |  |  | 
S=C(Nc1ccccc1)N1N=C2c3ccccc3CC[C@H]2[C@@H]1c1ccccc1 |  |  |  | > 100 | > 100 |  | > 100 | > 100 | > 100 |  | > 100 |  |  |  |  |  |  |  | 
CSc1ccc2c(cc1=O)[C@@H](NC(=O)c1ccc(F)cc1)CCc1cc(O)c(O)c(O)c1-2 | > 100 |  |  | > 100 | > 100 | > 100 | > 100 | > 100 | > 100 | > 100 | > 100 |  |  |  |  |  |  |  | 
CCNCCNC(=O)c1ccc(Br)cc1 |  |  |  | > 100 | > 100 | > 100 | > 100 | > 100 | > 100 | > 100 | > 100 |  |  |  |  |  |  |  | 
COc1cc(/C=C(\C#N)c2ccccn2)cc(Br)c1O | 83.2 |  |  | > 100 | > 100 | > 100 | > 100 | > 100 | > 100 | > 100 | > 100 |  |  |  |  |  |  |  | 
CC1=NN(C(=O)Cc2ccccc2)C(=O)/C1=C\c1ccco1 | > 100 |  |  | > 100 | > 100 | > 100 | > 100 | > 100 | > 100 | > 100 | > 100 |  |  |  |  |  |  |  | 
COc1ccc(C#CCC(OC2OC(CO)C(O)C(O)C2O)C(O)c2ccc(OC)c(OC)c2)cc1OC (stereo not drawn) | > 100 |  |  | > 100 | > 100 | > 100 | > 100 | > 100 | > 100 | > 100 | > 100 |  |  |  |  |  |  |  | 

SMILES | TGI (SF-295 CNS) [µM] | TGI (MDA-MB-435) [µM] | TGI (MDA-MB-231 breast) [µM] | TGI (SN12C renal) [µM] | TGI (NCI-H226 lung) [µM] | TGI (SNB-75 CNS) [µM] | TGI (HCC-2998 colon) [µM] | TGI (HCT-15 colon) [µM] | TGI (OVCAR-5 ovarian) [µM] | TGI (K-562 leukemia) [µM] | TGI (ACHN renal) [µM] | TGI (T-47D breast) [µM] | GI50 (K-562 leukemia) [nM] | GI50 (SF-295 CNS) [nM] | GI50 (SN12C renal) [nM] | GI50 (NCI-H226 lung) [nM] | GI50 (SNB-75 CNS) [nM] | GI50 (HCC-2998 colon) [nM] | GI50 (HCT-15 colon)
Cc1ccc(C2=C(c3ccccc3)C(O)(c3ccc(C)cc3)C(c3ccccc3)=C2c2ccc(C)cc2)cc1 | > 100 |  |  | > 100 |  |  | > 100 | > 100 | > 100 | > 100 | > 100 |  |  |  |  |  |  |  | 
CN(C)CCC1(C2=CCCC2)CC/C(=C\c2ccccc2)C1=O (stereo not drawn) | 33.6 |  |  | 31.1 | 31.1 | 35.9 | 29.2 | 26.6 | 35.7 | 46.5 | 28.6 |  |  |  |  |  |  |  | 
COC(=O)C(Cc1nc2ccccc2[nH]c1=O)C(=O)C(=O)Nc1ccc(OC)cc1[N+](=O)[O-] (stereo not drawn) | > 100 |  |  | > 100 | > 100 |  | > 100 | > 100 | > 100 | > 100 | > 100 |  |  |  |  |  |  |  | 
COc1cc(OC)nc(Nc2c(C#N)c3nc4ccccc4n3c3ccccc23)n1 | 53 | > 100 |  |  | > 100 | 37.6 | > 100 | > 100 | > 100 | > 100 | 50.1 | > 100 |  |  |  |  |  |  | 
CCCCOC(=O)C1CN2C(=NC1(C(F)(F)F)C(F)(F)F)Sc1ccccc12 (stereo not drawn) | > 100 |  | > 100 | > 100 | > 100 | > 100 |  | > 100 | > 100 | > 100 | > 100 | > 100 |  |  |  |  |  |  | 
Nc1ccc(N)c2c1C(=O)c1c(N)ccc(N)c1C2=O | > 100 |  |  | > 100 | 67.8 | > 77.7 | > 100 | > 100 | > 100 | > 100 | > 100 |  |  |  |  |  |  |  | 
CC[C@]12C=CCN3CCC4(c5cc([C@@]6(C(=O)OC)CC7CN(CCc8c6[nH]c6ccccc86)C[C@@H]6CCC[C@H]76)c(OC)cc5N(C)C4[C@](O)(C(=O)OC)C1OC(C)=O)C32 (stereo partly drawn) | > 3.23 | 0.0249 | 0.536 | > 10 | 1.5 |  | > 6.75 | > 10 | > 10 | > 10 | > 8.37 |  |  |  |  |  |  |  | 
CCNCCCCNCC | > 3750 |  |  | > 3750 | > 3750 | > 3750 | > 3750 | > 3750 | > 3750 | > 3750 |  |  |  |  |  |  |  |  | 
S=C1SC(c2ccc(Cl)cc2)(c2ccc(Cl)cc2)c2ccccc21 | > 100 | > 100 | > 100 | > 100 | > 100 | > 100 | > 100 | > 100 | > 100 | > 100 | > 100 |  |  |  |  |  |  |  | 
O=C1C[C@H]2[C@H](c3ccc(Br)cc3)[C@H]3C(=O)c4ccccc4NC(=O)[C@@H]3[C@@]2(O)c2ccccc2N1 | > 100 | 26.9 | 36.1 | > 100 | > 100 | 41.1 | 30.3 | > 100 | 91.9 | 48.9 | 97.7 |  |  |  |  |  |  |  | 
O=C(CSc1nnc(-c2ccc(N=Cc3ccc(Cl)cc3)cc2)o1)Nc1cccc(Cl)c1 | > 100 |  |  | > 100 | > 100 | > 100 |  | > 100 |  | > 100 | > 100 |  |  |  |  |  |  |  | 
N#Cc1c2nc3ccccc3nc2n2ccc3ccccc3c12 | > 100 |  |  | > 100 | > 100 | > 100 | > 100 | > 100 | > 100 | > 100 | > 100 |  |  |  |  |  |  |  | 
COc1cc([C@@H]2c3cc4c(c(O)c3C[C@H]3COC(=O)[C@@H]32)OCO4)cc(OC)c1O | < 0.02 |  |  | 0.431 |  | > 78.6 | 2 | > 9.28 | > 200 | > 50.2 |  |  | 3.12 | 3.04 | 3.72 | 5.62 | 4.21 | 28.3 | 3.48 nM and 26.5 nM
COc1ccc(-c2nnc(CCCCCCCCc3nnc(-c4ccc(OC)cc4)o3)o2)cc1 | > 100 | > 100 | > 100 | > 100 | > 100 | 93.6 | > 100 | > 100 | > 100 | > 100 | > 100 |  |  |  |  |  |  |  | 
CN1OC2OC(=O)OC2[C@H]1[C@H]1O[C@H](c2ccccc2)OC1(C)c1cc(OC(=O)c2ccccc2)ccc1OC(=O)c1ccccc1 (stereo partly drawn) |  |  |  | > 50 | > 50 | > 50 |  | > 50 | > 50 | > 50 | > 50 |  |  |  |  |  |  |  | 
CC(C)(O)[C@H](CCO)O[Si](c1ccccc1)(c1ccccc1)C(C)(C)C | 18.9 |  |  | 14 |  | 22.9 | 18.1 | 20.7 | 28.1 | 23.7 | 19.7 |  |  |  |  |  |  |  | 
